In patent US11401278B2, “Macrocyclic indole derivatives” (The Broad Institute, Inc., priority 2017, dated 2022):
“And” between values parts separate entries of the source, which are not always exact repeats. Equal entries are not always repeated. Structures can show the parent of a compound that is named as a salt. Where two headings read alike, the source gives them in different places.

What was measured:
[1] = test system: MV-4-11; assay: Antiproliferation assay (Assay 7), MV-4-11; type: cell-based; details: CellTiter-Glo, several values per example
Outline: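 Proliferation was read by CellTiter-Glo luminescence after 72 hours of compound treatment at 37° C. The read was referenced to a parallel plate measured at time zero.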

[2] = test system: SUDHL10; assay: Induction of cytotoxicity (Assay 6), SUDHL10; details: read-out: Cytotox SUDHL10 [M] (median) IC50, CellTiter-Glo, 5 hours, SUDHL10
[3] = biological target: BCL-2 (Homo sapiens (Human), UniProt P10415); assay: Protein-protein interaction assay BCL-2/Bad BH3 peptide (BCL-2 assay, TR-FRET); type: binding; details: His-BCL-2 / Bad BH3 peptide, median
Chain of BCL-2 (P10415 other isoform, or with tags, fused parts or gaps): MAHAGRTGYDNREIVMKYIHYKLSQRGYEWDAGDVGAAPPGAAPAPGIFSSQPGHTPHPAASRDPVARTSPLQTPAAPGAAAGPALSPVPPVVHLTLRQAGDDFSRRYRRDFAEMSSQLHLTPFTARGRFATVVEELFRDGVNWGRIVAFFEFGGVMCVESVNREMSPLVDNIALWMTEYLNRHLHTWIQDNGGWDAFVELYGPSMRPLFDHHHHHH
Method: Assay 3 Protein-Protein Interaction Assay: BCL-2/Bad BH3 Peptide (BCL-2 Assay)
The dose-dependent inhibition by the compounds described in this invention of the interaction between BCL-2 and the BH3 domain of Bad (both human) was determined using a steady state binding competition assay with time-resolved fluorescence energy transfer (TR-FRET) readout. For that purpose BCL-2 (amino acids 1-211, C-terminal fused to a hexahistidine (6×His) tag (SEQ ID 5) and a synthetic Bad BH3-derived peptide of sequence Biotin-PEG2-PEG2-NLWAAQRYGRELRR-Nle-SDEFVDSFKK-amide (SEQ ID 4) served as protein receptor and tracer ligand respectively. The recombinant BCL-2 protein (expressed in E. coli) was purchased from BPS Bioscience (San Diego, Calif., USA). The Bad BH3-derived peptide can be obtained from e.g. Biosyntan (Berlin, Germany).
In the assay 11 different concentrations of each compound (0.1 nM, 0.33 nM, 1.1 nM, 3.8 nM, 13 nM, 44 nM, 0.15 μM, 0.51 μM, 1.7 μM, 5.9 μM and 20 μM) were typically measured as duplicates in the same microtiter plate. For that, 100-fold concentrated DMSO solutions were prepared by serial dilutions (1:3.4) of a 2 mM stock solution in a clear, 384-well microtiter plate (Greiner Bio-One, Frickenhausen, Germany). From there, 50 nl were transferred in a dark test plate (Greiner Bio-One, Frickenhausen, Germany). The assay was initiated by addition of 2 μl of a 2.5-fold concentrated His-BCL-2 solution (usually for a 1 nM end concentration in 5 μl reaction volume) in aqueous assay buffer [50 mM Tris/HCl pH 7, 100 mM sodium chloride (NaCl), 50 mM potassium fluoride (KF), 0.005% Tween-20, 2 mM DTT, 0.1% bovine gamma globulin (BGG)] to the compounds in the assay plate. This was followed by a 10-minute incubation step at 22° C. for pre-equilibration of the putative complex between His-BCL-2 and the compounds. After that, 3 μl of a 1.67-fold concentrated solution (in assay buffer) consisting of Bad BH3-derived peptide (1 nM end concentration) and TR-FRET detection reagents [1.67 nM anti-His-Eu cryptate and 1.67 nM streptavidin-XL665 (both from Cisbio Bioassays, Codolet, France)], were added.
The mixture was incubated in the dark for one hour at 22° C. and then overnight at 4° C. The formation of BCL-2/Bad complexes was determined by measuring the resonance energy transfer of the anti-His-Eu-cryptate antibody to the streptavidin-XL665 present in the reaction. For that purpose, the fluorescence emission at 620 nm and 665 nm after excitation at 330-350 nm was measured in a TR-FRET measuring instrument, for instance a Rubystar or a Pherastar (both from BMG Lab Technologies, Offenburg, Germany) or a Viewlux (Perkin-Elmer). The ratio of the emission at 665 nm and at 622 nm was used as indicator of the amount of BCL-2/Bad complexes present.
The resulting data (ratio) were normalized, taking 0% inhibition as the mean value of control measurements (usually 32 data points) where all reagents were included. In this case 50 nl DMSO were used instead of compounds. A 100% inhibition corresponded to the mean value of control measurements (usually 32 data points) where all reagents except BCL-2 were included. IC50 values were determined by regression analysis based on a 4 parameter equation (minimum, maximum, IC50, Hill; Y=Max+(Min−Max)/(1+(X/IC50)^HiII) using the Screener Software (Genedata).

[4] = Homo sapiens, MV4-11, 72 h, read-out: Antiproli MV-4-11 [M] IC50
[5] = 72 hours, read-out: Antiproli MV-4-11 [M] IC50

`CCc1c2c(nn1C)C(C)N(C)S(=O)(=O)CCCn1c(C(=O)O)c(CCCOc3cccc4ccccc34)c3cccc-2c31` (racemic) [Example 18, 12-Ethyl-8,9,11-trimethyl-1-(3-(naphthalen-1-yloxy)propyl)-5,6,9,11-tetrahydro-4H,8H-pyrazolo[3′,4′:4,5][1]thia[2,8]diazacycloundecino[6,7,8-hi]indole-2-carboxylic acid 7,7-dioxide (Mixture of Stereoisomers)] gave an IC50 [1, 4] of 3.75e-06 M, an IC50 ([2]; Homo sapiens, SU-DHL10, 5 h) of 9.2e-06 M and an IC50 [3] greater than 20 µM.

In the case of `CCc1c2c(nn1C)CN(CCN1CCCCC1)S(=O)(=O)CCCn1c(C(=O)O)c(CCCOc3cccc4ccccc34)c3cccc-2c31` (racemic) [Example 14, (rac)-12-Ethyl-11-methyl-1-(3-(naphthalen-1-yloxy)propyl)-8-(2-(piperidin-1-yl)ethyl)-4,5,6,8,9,11-hexahydropyrazolo[3′,4′:4,5][1,2,8]thiadiazacycloundecino[6,7,8-hi]indole-2-carboxylic acid 7,7-dioxide 2,2,2-trifluoroacetic acid salt], the IC50 [1, 5] is reported as 1.28e-05 M, the IC50 [1, 4] is reported as 1.18e-05 M and the IC50 ([2]; Homo sapiens, SU-DHL10, 5 h) is reported as 8.5e-06 M. For the same compound, the IC50 [3] was greater than 20 µM.

`CCc1c2c(nn1C)CN(C)S(=O)(=O)CCCn1c(C(=O)O)c(CCCOc3cccc4cc(F)ccc34)c3ccc(F)c-2c31` (racemic) [Example 7, (rac)-12-Ethyl-13-fluoro-1-(3-((6-fluoronaphthalen-1-yl)oxy)propyl)-8,11-dimethyl-5,6,9,11-tetrahydro-4H,8H-pyrazolo[3′,4′:4,5][1]thia[2,8]diazacycloundecino[6,7,8-hi]indole-2-carboxylic acid 7,7-dioxide] showed an IC50 ([1]; 72 hours, listed as 07, read-out: Antiproli MV-4-11 [M] IC50) of 2.15e-06 M, an IC50 [1, 4] of 1.35e-06 M and an IC50 ([2]; Homo sapiens, SU-DHL10, 5 h) of 9.1e-07 M. The IC50 [3] was 18 µM.

Work on `CCc1c2c(nn1C)CN(C)S(=O)(=O)CCCn1c(C(=O)O)c(CCCOc3cccc4c3CCC4)c3ccc(Cl)c-2c31` [Example 21, (rac)-13-Chloro-1-(3-((2,3-dihydro-1H-inden-4-yl)oxy)propyl)-12-ethyl-8,11-dimethyl-5,6,9,11-tetrahydro-4H,8H-pyrazolo[3′,4′:4,5][1]thia[2,8]diazacycloundecino[6,7,8-hi]indole-2-carboxylic acid 7,7-dioxide] yielded an IC50 [1, 4] of 2.1e-06 M, an IC50 ([2]; Homo sapiens, SU-DHL10, 5 h) of 1.8e-06 M and an IC50 [3] greater than 20 µM.

Work on `CCc1c2c(nn1C)CN(C)S(=O)(=O)CCCn1c(C(=O)O)c(CCCOc3cccc4ccccc34)c3ccc(F)c-2c31` (racemic) [Example 31, (rac)-12-Ethyl-13-fluoro-8,11-dimethyl-1-(3-(naphthalen-1-yloxy)propyl)-5,6,9,11-tetrahydro-4H,8H-pyrazolo[3′,4′:4,5][1]thia[2,8]diazacycloundecino[6,7,8-hi]indole-2-carboxylic acid 7,7-dioxide] yielded an IC50 [1, 5] of 5.51e-06 M, an IC50 [1, 4] of 4.7e-06 M and an IC50 ([2]; Homo sapiens, SU-DHL10, 5 h) of 1.9e-06 M. For the same compound, the IC50 [3] was greater than 20 µM.

`CCc1c2c(nn1C)CN(C)S(=O)(=O)CCCn1c(C(=O)O)c(CCCOc3ccc(F)c4ccccc34)c3ccc(Cl)c-2c31` [Example 24, (rac)-13-Chloro-12-ethyl-1-(34(4-fluoronaphthalen-1-yl)oxy)propyl)-8,11-dimethyl-4,5,6,8,9,11-hexahydropyrazolo[3′,4′:4,5][1,2,8]thiadiazacycloundecino[6,7,8-hi]indole-2-carboxylic acid 7,7-dioxide] gave an IC50 [1, 4] of 2.5e-06 M, an IC50 ([2]; Homo sapiens, SU-DHL10, 5 h) of 2.4e-06 M and an IC50 [3] greater than 20 µM.

In the case of `CCc1c2c(nn1C)CN(C)S(=O)(=O)CCCn1c(C(=O)O)c(CCCOc3cccc4cc(F)ccc34)c3ccc(F)c-2c31` (single isomer, unassigned; enantiomer 2) [Example 9, (−)-3-Ethyl-4-fluoro-7-{3-[(6-fluoronaphthalen-1-yl)oxy]propyl}-2,14-dimethyl-13,13-dioxo-10,11,12,13,14,15-hexahydro-2H-13λ^6-pyrazolo[3′,4′:4,5][1,2,8]thiadiazacycloundecino-[6,7,8-hi]indole-8-carboxylic acid (Enantiomer 2)], the IC50 ([1]; 72 hours, listed as 09, read-out: Antiproli MV-4-11 [M] IC50) is reported as 1.98e-05 M, the IC50 [2] is reported as greater than 3.3e-05 M and the IC50 [3] is reported as greater than 20 µM.

Compound `CCc1c2c(nn1C)CN(CCCN1CCCC1=O)S(=O)(=O)CCCn1c(C(=O)O)c(CCCOc3cccc4ccccc34)c3cccc-2c31` (racemic) [Example 13, (rac)-12-Ethyl-11-methyl-1-(3-(naphthalen-1-yloxy)propyl)-8-(3-(2-oxopyrrolidin-1-yl)propyl)-5,6,9,11-tetrahydro-4H,8H-pyrazolo[3′,4′:4,5][1]thia[2,8]diazacycloundecino[6,7,8-hi]indole-2-carboxylic acid 7,7-dioxide] has an IC50 [1, 4] of 1.62e-05 M, an IC50 ([2]; Homo sapiens, SU-DHL10, 5 h) of 1.7e-05 M and an IC50 [3] greater than 20 µM.

`CCc1c2c(nn1C)CN(C)S(=O)(=O)CCCn1c(C(=O)O)c(CCCOc3cccc4c3CCC4)c3ccc(F)c-2c31` (racemic) [Example 32, (rac)-1-(3-((2,3-Dihydro-1H-inden-4-yl)oxy)propyl)-12-ethyl-13-fluoro-8,11-dimethyl-5,6,9,11-tetrahydro-4H,8H-pyrazolo[3′,4′:4,5][1]thia[2,8]diazacycloundecino[6,7,8-hi]indole-2-carboxylic acid 7,7-dioxide] gave an IC50 [1, 5] of 1.14e-06 M, an IC50 [1, 4] of 2.2e-06 M and an IC50 ([2]; Homo sapiens, SU-DHL10, 5 h) of 1.2e-06 M. The IC50 [3] was greater than 20 µM.

`CCc1c2c(nn1C)CN(CCCN1CCCC1)S(=O)(=O)CCCn1c(C(=O)O)c(CCCOc3cccc4ccccc34)c3cccc-2c31` (racemic) [Example 16, (rac)-12-Ethyl-11-methyl-1-(3-(naphthalen-1-yloxy)propyl)-8-(3-(pyrrolidin-1-yl)propyl)-5,6,9,11-tetrahydro-4H,8H-pyrazolo[3′,4′:4,5][1]thia[2,8]diazacycloundecino[6,7,8-hi]indole-2-carboxylic acid 7,7-dioxide] showed an IC50 [1, 4] greater than 3.3e-05 M, an IC50 ([2]; Homo sapiens, SU-DHL10, 5 h) greater than 3.3e-05 M and an IC50 [3] greater than 20 µM.

In the case of `CCc1c2c(nn1C)CNS(=O)(=O)CCCn1c(C(=O)O)c(CCCOc3cccc4ccccc34)c3cccc-2c31` (racemic) [Example 17, (rac)-12-Ethyl-11-methyl-1-(3-(naphthalen-1-yloxy)propyl)-4,5,6,8,9,11-hexahydropyrazolo[3′,4′:4,5][1,2,8]thiadiazacycloundecino[6,7,8-hi]indole-2-carboxylic acid 7,7-dioxide], the IC50 [1, 4] is reported as 1.65e-05 M, the IC50 ([2]; Homo sapiens, SU-DHL10, 5 h) is reported as 1.6e-05 M and the IC50 [3] is reported as greater than 20 µM.

`Cc1c2c(nn1C)CN(CCN1CCOCC1)S(=O)(=O)CCCn1c(C(=O)O)c(CCCOc3cccc4ccccc34)c3cccc-2c31` (racemic) [Example 1, (rac)-2,3-Dimethyl-14-[2-(morpholin-4-yl)ethyl]-7-{3-[(naphthalen-1-yl)oxy]propyl}-13,13-dioxo-10,11,12,13,14,15-hexahydro-2H-13λ^6-pyrazolo[3′,4′:4,5][1,2,8]thiadiazacycloundecino-[6,7,8-hi]indole-8-carboxylic acid] was tested, and the IC50 ([1]; 72 hours, listed as 01, read-out: Antiproli MV-4-11 [M] IC50) was 1.8e-05 M and 2.38e-05 M, the IC50 [1, 4] was 1.73e-05 M and the IC50 ([2]; Homo sapiens, SU-DHL10, 5 h) was 1.3e-05 M. It also gave an IC50 [3] greater than 20 µM.
